Reference: ChEMBL document CHEMBL3132857, “Design, synthesis and biological evaluation of novel indano- and thiaindano-pyrazoles with potential interest for Alzheimer's disease” (Medchemcomm, 2013)

Assays:
Acetylcholinesterase [1] = molecular target: T1, Acetylcholinesterase (Homo sapiens, UniProt P22303); experiment: Inhibition of human erythrocyte AChE using acetylthiocholine chloride by spectrophotometry
Acetylcholinesterase [2] = molecular target: T2, Acetylcholinesterase (Electrophorus electricus, UniProt O42275); experiment: Inhibition of electric eel AChE using acetylthiocholine chloride by spectrophotometry
[3] = molecular target: Butyrylcholinesterase (Equus caballus) (UniProt Q9N1N9); experiment: Inhibition of horse serum BuChE at 10 uM using butyrylthiocholine chloride by spectrophotometry
Acetylcholinesterase [4] = molecular target: T2, Acetylcholinesterase; experiment: Non-competitive inhibition of electric eel AChE using acetylthiocholine chloride by Lineweaver-Burk plot method and Ellman's method based spectrophotometry
Acetylcholinesterase [5] = molecular target: T1, Acetylcholinesterase; experiment: Inhibition of human erythrocyte AChE at 10 uM using acetylthiocholine chloride by spectrophotometry
[6] = molecular target: Acetylcholinesterase (Electrophorus electricus) (UniProt O42275); experiment: Inhibition of electric eel AChE at 10 uM using acetylthiocholine chloride by spectrophotometry
Acetylcholinesterase [7] = molecular target: T2, Acetylcholinesterase; experiment: Reversible mixed type inhibition of electric eel AChE using acetylthiocholine chloride by Lineweaver-Burk plot method and Ellman's method based spectrophotometry
Butyrylcholinesterase = Butyrylcholinesterase (Equus caballus, UniProt Q9N1N9); experiment: Inhibition of horse serum BuChE using butyrylthiocholine chloride by spectrophotometry

| Structure (SMILES) | IC50 (Acetylcholinesterase [1]) [nM] | IC50 (Acetylcholinesterase [2]) [nM] | inhibition (Acetylcholinesterase [5]) [%] | other results |
| --- | --- | --- | --- | --- |
| Cn1ncc2c1-c1sccc1C2NC(=O)CN1CCN(Cc2ccccc2F)CC1 (stereo not drawn) | 1320 | 1310 |  |  |
| Cn1ncc2c1-c1c(Br)sc(Br)c1C2NC(=O)CN1CCN(Cc2ccccc2F)CC1 (stereo not drawn) | 880 | 240 |  | inhibition [3]: 30%; Ki (Acetylcholinesterase [4]): 429 nM |
| O=C(CN1CCN(Cc2ccccc2F)CC1)NC1c2cn[nH]c2-c2c(Br)sc(Br)c21 (stereo not drawn) |  | 4530 | 42 |  |
| COc1cc2c(cc1OC)C(NC(=O)CN1CCN(Cc3ccccc3)CC1)c1cn[nH]c1-2 (stereo not drawn) |  | 2940 | 49 |  |
| COc1cc2c(cc1OC)C(NC(=O)CN1CCN(Cc3ccccc3F)CC1)c1cnn(-c3ccccc3)c1-2 (stereo not drawn) | 2430 | 210 |  | inhibition [3]: 8% |
| O=C(CN1CCN(Cc2ccccc2)CC1)NC1c2ccsc2-c2c1cnn2-c1ccccc1 (stereo not drawn) |  |  | 36 | inhibition [6]: 31% |
| COc1cc2c(cc1OC)C(NC(=O)CN1CCN(Cc3ccccc3)CC1)c1cnn(C)c1-2 (stereo not drawn) | 1840 | 1280 |  |  |
| O=C(CN1CCN(Cc2ccccc2F)CC1)NC1c2cn[nH]c2-c2sccc21 (stereo not drawn) |  | 4590 | 42 |  |
| O=C(CN1CCN(Cc2ccccc2F)CC1)NC1c2cnn(-c3ccccc3)c2-c2c(Br)sc(Br)c21 (stereo not drawn) |  |  | 15 | inhibition [6]: 27% |
| Cn1ncc2c1-c1c(Br)sc(Br)c1C2NC(=O)CN1CCN(Cc2ccccc2)CC1 (stereo not drawn) | 330 | 100 |  | Ki (Acetylcholinesterase [7]): 235 nM; IC50 (Butyrylcholinesterase): 7760 nM |
| COc1cc2c(cc1OC)C(NC(=O)CN1CCN(Cc3ccccc3)CC1)c1cnn(-c3ccccc3)c1-2 (stereo not drawn) | 2990 | 1360 |  |  |
| COc1cc2c(cc1OC)C(NC(=O)CN1CCN(Cc3ccccc3F)CC1)c1cnn(C)c1-2 (stereo not drawn) | 2440 | 720 |  | inhibition [3]: 1% |
| Cn1ncc2c1-c1sccc1C2NC(=O)CN1CCN(Cc2ccccc2)CC1 (stereo not drawn) | 930 | 1910 |  |  |
| O=C(CN1CCN(Cc2ccccc2)CC1)NC1c2cn[nH]c2-c2sccc21 (stereo not drawn) | 9180 |  |  | inhibition [6]: 49% |
| COc1cc2c(cc1OC)C(NC(=O)CN1CCN(Cc3ccccc3F)CC1)c1cn[nH]c1-2 (stereo not drawn) |  | 3980 | 50 |  |
| O=C(CN1CCN(Cc2ccccc2)CC1)NC1c2cnn(-c3ccccc3)c2-c2c(Br)sc(Br)c21 (stereo not drawn) | 870 | 290 |  | inhibition [3]: 37% |
| O=C(CN1CCN(Cc2ccccc2)CC1)NC1c2cn[nH]c2-c2c(Br)sc(Br)c21 (stereo not drawn) | 1130 | 8820 |  |  |
| O=C(CN1CCN(Cc2ccccc2F)CC1)NC1c2ccsc2-c2c1cnn2-c1ccccc1 (stereo not drawn) |  | 4060 | 42 |  |
